Measurements: patent US4808614A (priority 1987, dated 1989)

What was measured:
6C3HED lymphosarcoma = experiment: Oncolytic activity in tumor system 6C3HED lymphosarcoma; format: in vivo
CA-755 adenocarcinoma = experiment: Oncolytic activity in tumor system CA-755 adenocarcinoma; format: in vivo
[1] = system: L1210V lymphocytic leukemia; experiment: Oncolytic activity in tumor system L1210V lymphocytic leukemia; format: in vivo
[2] = system: P1534J lymphatic leukemia; experiment: Oncolytic activity in tumor system P1534J lymphatic leukemia; format: in vivo
[3] = system: X5563 plasma cell myeloma; experiment: Oncolytic activity in tumor system X5563 plasma cell myeloma; format: in vivo
Herpes simplex, type I = experiment: cells; format: cell-based, Herpes simplex virus; conditions: Chlorocebus sabaeus, BSC-1, 72 h, read-out: Percent Plaque Inhibition
Pseudorabies Virus = experiment: microbe, parasite or virus in culture; format: cell-based; conditions: Suid alphaherpesvirus 1, BSC-1, in Chlorocebus sabaeus, 72 h, read-out: Percent Plaque Inhibition

SMILES	oncolytic activity (6C3HED lymphosarcoma)	oncolytic activity (CA-755 adenocarcinoma)	oncolytic activity [1]	oncolytic activity [2]	oncolytic activity [3]	inhibition at 0.39 µg/mL (Herpes simplex, type I)	inhibition at 0.78 µg/mL (Herpes simplex, type I)	inhibition at 1.56 µg/mL (Herpes simplex, type I)	inhibition at 3.12 µg/mL (Herpes simplex, type I)	inhibition at 6.25 µg/mL (Herpes simplex, type I)	inhibition at 12.5 µg/mL (Herpes simplex, type I)	inhibition at 25 µg/mL (Herpes simplex, type I)	inhibition at 50 µg/mL (Herpes simplex, type I)	inhibition at 100 µg/mL (Herpes simplex, type I)	inhibition at 3 µg/mL (Pseudorabies Virus)	inhibition at 6 µg/mL (Pseudorabies Virus)	inhibition at 12 µg/mL (Pseudorabies Virus)	inhibition at 25 µg/mL (Pseudorabies Virus)	inhibition at 50 µg/mL (Pseudorabies Virus)	inhibition at 100 µg/mL (Pseudorabies Virus)
Nc1ccn(C2O[C@H](CO)[C@@H](O)C2(F)F)c(=O)n1 (some centres unmarked) [Example 8, 1-(2-oxo-4-amino-1H-pyrimidin-1-yl)-2-desoxy-2,2-difluororibose]	demonstrated activity	demonstrated activity	demonstrated activity	demonstrated activity	demonstrated activity															
Cc1cn(C2O[C@H](CO)[C@@H](O)C2(F)F)c(=O)[nH]c1=O (some centres unmarked) [DFAT, 1-(5-methyl-2,4-dioxo-1H,3H-pyrimidin-1-yl)-2-desoxy-2,2-difluororibose]						4%	8%	0%	12%	15%	35%	53%	72%	96%	5%	6%	12%	15%	18%	23%
